Measurements published in patent US11090273B2, “Tagged poly(ester amide urethane)s, nanoparticles formed from same, and uses thereof” (Cornell University, priority 2016, dated 2021).

Tests used:
[1] = system: HeLa cells; assay: Mitochondrial membrane potential (ΔΨm) change, JC-1 flow cytometry; assay type: cell-based; details: 2 μg/mL GA equivalent (CCCP 50 μM), 24 h
[2] = system: A549 cells; assay: as above; assay type: cell-based, human; details: 2 μg/mL GA equivalent (CCCP 50 μM), 24 h
[3] = system: HCT116 cells; assay: Cellular apoptosis by flow cytometry (Annexin V-FITC/PI); assay type: cell-based, human; details: HCT 116; 2 μg/mL GA or equal amount loaded; 24 h
Protocol: Apoptosis was assessed using staining with Annexin V-FITC/PI apoptosis detection kit (Affymetrix, CA) according to the manufacturer's instruction followed by flow cytometry analysis.

[4] = system: MMP-2 and MMP-9 activity of A549 cells; assay: Gelatin zymography of MMP activity; assay type: cell-based, human; details: 0.6 μg/mL GA equivalent, serum-free media, 16 h
[5] = system: MCF-7 human breast cancer xenograft tumor; details: xenograft tumor at end of study
Protocol: In vivo xenograft Protocols Used. Female BALB/c nude mice, 8-weeks old, were obtained from the Laboratory Animal Services Centre, The Chinese University of Hong Kong. Mice were kept at room temperature 23±2° C. with an alternating 12-h light-dark cycle, and were allowed access to food and water ad libitum.
Before inoculation, 10 mg/kg Estradiol benzoate was given into mice through intraperitoneal (IP) injection with 2-day intervals. MCF-7 cells (4×10^6 cells per mouse) were suspended in PBS and inoculated subcutaneously into the left flank of each mouse, and tumor growth was monitored regularly. […] Equal volumes of saline were used as solvent for the free drug groups.
The therapy was continued six times at 2-day intervals through tail vein injection. Estradiol benzoate was also IP injected into mice at 2-day intervals during administration. The antitumor activity of the tested formulations was estimated by recording the changes in tumor mass. Tumor volumes were monitored by recording the tumor length and width with a caliper then calculated using the equation, V=0.5×a×b^2, where V is tumor volume (mm), a is tumor length (mm), and b is tumor width (mm). Mice were sacrificed on the 12th day after administration, and the tumors were weighed. […]

| SMILES | percentage of cell population with severe loss of ΔΨm [1] [%] | percentage of cell population with severe loss of ΔΨm [2] [%] | percentage of dead cells [3] [%] | percentage of healthy cells [3] [%] | percentage of late apoptotic cells [3] [%] | MMP band size and intensity / MMP activity (gelatin zymography) [4] | H&E staining: vacuoles in the tumor tissue [5] |
| --- | --- | --- | --- | --- | --- | --- | --- |
| N#CC(C#N)=NNc1cccc(Cl)c1 [CCCP, carbonyl cyanide 3-chlorophenylhydrazone] | 60.0 | 89.7 | – | – | – | – | – |
| CC(C)=CCC[C@]1(C)C=Cc2c(O)c3c(c(CC=C(C)C)c2O1)O[C@]12C(=C[C@@H]4C[C@H]1C(C)(C)O[C@@]2(C/C=C(/C)C(=O)O)C4=O)C3=O [GA, Gambogic acid] | 29.7 | 60.1 | 27.7 | 68.1 | 2.0 | reduced when comparing to the control sample | fewer vacuoles |
